Laboratory results: patent US9278940B2, “Cyclic amines as bromodomain inhibitors” (Zenith Epigenetics Corp., priority 2012, dated 2016)
Structures can show the parent of a compound that is named as a salt.

What was measured:
Brd4 bromodomain 1 = biological target: T1, Brd4 bromodomain 1 (Homo sapiens, UniProt O60885); experiment: Inhibition of tetra-acetylated histone H4 binding to BET bromodomain (TR-FRET); set-up: key: Active: Compounds with an IC50 value less than 30 μM were deemed to be active.; Not Active: Compounds with an IC50 value less than 30 μM were deemed to be active; conditions: Brd4 bromodomain 1, tetra-acetylated histone H4 peptide
T1 construct: made in house; host or cells: E. coli BL21(DE3)
How it was run: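 N-terminally His-tagged bromodomain (200 nM, E. coli-expressed, Ni affinity and SEC purified) with biotinylated tetra-acetylated H4 peptide (25-50 nM), Eu-cryptate streptavidin and XL665 anti-His; 2 h at room temperature in HEPES pH 7.4/KF buffer, 0.2% DMSO. The 665/620 nm ratio decrease gave IC50 from dose-response curves.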

hApoA-1 mRNA = experiment: Up-regulation of hApoA-1 mRNA transcription in Huh7 cells; type: cell-based, human; set-up: key: Active: Compounds with an EC170 value less than 30 μM are deemed to be active.; Not Active: Compounds with an EC170 value less than 30 μM are deemed to be active; conditions: 48 hrs treatment, ApoA-I mRNA
How it was run: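 Huh7 cells plated 24 h before compound, then treated 48 h; mRNA isolated from lysates and ApoA-I quantified by one-step real-time PCR. Fold induction derived from Ct values relative to the matching DMSO control; EC170 reported as activity measure.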

Human AML MV-4-11 cells = experiment: Inhibition of cell proliferation in MV4-11 cells; type: cell-based; set-up: key: Active: Compounds with an IC50 value less than 30 μM are deemed to be active.; Not Active: Compounds with an IC50 value less than 30 μM are deemed to be active; conditions: 72 hours
How it was run: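 Exponentially growing MV-4-11 cells were treated immediately with two-fold compound dilutions from 30 µM to 0.2 µM in triplicate for 72 h at 37 °C. Viability was read by MTS (CellTiter Aqueous One) absorbance at 490 nm after 3-4 h; % proliferation vs DMSO gave IC50.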

c-myc = experiment: Inhibition of c-myc expression (mRNA, real-time PCR) in MV4-11 cells; type: cell-based; set-up: key: Active: Compounds with an IC50 value less than 30 μM were deemed to be active.; Not Active: Compounds with an IC50 value less than 30 μM were deemed to be active; conditions: Human AML MV4-11 cells, 3 hours
How it was run: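 MV4-11 cells (2.5×10^4) exposed to compound or 0.1% DMSO for 3 h at 37° C, then lysed for mRNA isolation. c-myc and cyclophilin cDNAs co-amplified by duplex RT real-time PCR. IC50 from dose-response curve.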

COc1cc(OC)c2c(=O)[nH]c(-c3cccc(N4CCN(C(C)C)CC4)n3)nc2c1 [Example 17, 2-(6-(4-Isopropylpiperazin-1-yl)pyridin-2-yl)-5,7-dimethoxyquinazolin-4(3H)-one Hydrochloride]
Active: FRET activity (IC50 < 30 μM) (Brd4 bromodomain 1) | ApoA-1 activity (EC170 < 30 μM) (hApoA-1 mRNA) | cell proliferation activity (IC50 < 30 μM) (Human AML MV-4-11 cells) | c-myc activity (IC50 < 30 μM) (c-myc)
